Experimental data published in paper PMC8151276, “An Integrated Approach toward NanoBRET Tracers for Analysis of GPCR Ligand Engagement” (Molecules, 2021).

Assays:
[1] = target: T1, SSTR2 (Homo sapiens, UniProt P30874); test: NanoBRET screen HiBiT-SSTR2 in HEK293; format: binding
T1 construct: purchased Promega (in-house HiBiT-GPCR construct library, NanoBRET)
Protocol: (§1) Each tracer candidate was screened across the entire library of HiBiT-GPCR constructs using NanoBRET as the detection modality. As depicted in Figure 4A, the specificity of interactions was evaluated through decrease in BRET due to competitive displacement of a bound tracer by excess parental compound. Each tracer was analyzed for binding to each HiBiT-GPCR fusion in the absence and in the presence of competing parental compound. Briefly, HEK293 cells were transfected with HiBiT-GPCR constructs diluted into promoterless DNA to reduce expression and maximize translocation to the cell surface. Each tracer candidate was then screened at concentrations of 1 μM and 0.1 μM across cells expressing these fusions. Cells were treated for 1.5 h with tracer either alone or in the presence of 20 μM competing parental compound (i.e., control). BRET was measured upon addition of purified LgBiT and subsequent complementation with HiBiT genetically fused to a GPCR. The specificity of interactions was assessed through a decrease in BRET signal due to competitive displacement of the bound tracer. To further gauge the robustness of these interactions, the fold response over the control (i.e., BRETtracer/BRETcontrol) was calculated. We chose a 1.5-fold response, which translates to ≥7-fold signal over noise as the minimal threshold required to score an interaction as positive. […]. Below we highlight the screening results obtained for our exemplary fluorescent tracers based on Clozapine, Amitriptyline and AZD1283.
(§2) HiBiT-GPCR DNA constructs were diluted in 10 mM Tris pH 8 to a final concentration of 0.01 μg/μL, arrayed in 96-well plates and stored at −20 °C. For transfection, HEK293 cells were suspended in Opti-MEM (without phenol red) supplemented with 2% fetal bovine serum (Seradigm) and 100 units/mL penicillin–streptomycin (Gibco) at a final concentration of 220,000 cells/mL and dispensed into white 96-well plates at 90 μL/well. Subsequent transfections and screens were carried using an Agilent Bravo Automated Liquid Handling Platform. First, the 96-well HiBiT DNA arrays were diluted 25-fold in Opti-MEM (without serum or phenol red) to a final concentration of 0.0004 μg/μL and 20 μL of the diluted DNAs were transferred into new 96-well plates. Next, promoterless carrier DNA (1 μg/μL) was diluted 25-fold (0.04 μg/μL) and then dispensed into the diluted arrays at 20 μL/well. Following brief mixing, Viafect transfection reagent (Promega) diluted 16-fold into Opti-MEM was dispensed into the plates at 40 μL/well. After mixing by pipetting, plates were incubated for 10 min on the pipetting station deck. The DNA-transfection reagent complexes were then added to plates containing cells. To facilitate the screen, 10 μL of DNA-transfection reagent complexes were added in duplicates to the top 4 and bottom 4 rows, resulting in two identical 48-well arrays per plate. Plates with transfected cells were incubated for 18–20 h at 37 °C/5% CO2. A screen of each tracer across the entire library using two different concentrations requires duplicate plates of transfected cells. Depending on the number of tracers being screened, transfections can be scaled up using the same ratios. The next day, for each tracer, four 20× screening solutions in tracer dilution buffer (Promega) were prepared: two duplicates at final concentration of 20 μM and two duplicates at a final concentration of 2 μM. A competing unmodified compound was added to one of each duplicate at a final concentration of 400 μM. The four resulting solutions were diluted 4-fold in Opti-MEM without serum or phenol red to generate 5× solutions (5 µM and 0.5 µM tracer +/− 100 μM competing compound). To screen the library, a BioTek MultiFlo FX liquid dispenser was used to dispense 22.5 µL of tracer solution to the top 4 rows and 22.5 µL tracer + competing compound solution to the 4 bottom rows. Plates were briefly mixed on an orbital shaker and incubated for 1.5 h at room temperature. […]

[2] = target: T2, MLNR (Homo sapiens, UniProt O43193); test: NanoBRET screen HiBiT-MLNR in HEK293; format: binding
T2 construct: purchased Promega (in-house HiBiT-GPCR construct library, NanoBRET)
T2 sequence (O43193 whole entry): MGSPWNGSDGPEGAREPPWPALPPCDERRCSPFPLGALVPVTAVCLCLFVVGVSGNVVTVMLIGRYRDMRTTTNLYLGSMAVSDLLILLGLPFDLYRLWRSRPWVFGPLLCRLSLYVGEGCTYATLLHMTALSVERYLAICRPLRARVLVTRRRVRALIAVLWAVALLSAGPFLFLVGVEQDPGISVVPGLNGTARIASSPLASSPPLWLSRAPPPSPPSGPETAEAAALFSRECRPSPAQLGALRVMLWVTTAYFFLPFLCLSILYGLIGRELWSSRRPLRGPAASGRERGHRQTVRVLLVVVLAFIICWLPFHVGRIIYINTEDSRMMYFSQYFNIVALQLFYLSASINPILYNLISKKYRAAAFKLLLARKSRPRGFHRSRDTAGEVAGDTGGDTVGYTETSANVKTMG
Protocol: as §1, §2

T1 sequence (P30874 whole entry): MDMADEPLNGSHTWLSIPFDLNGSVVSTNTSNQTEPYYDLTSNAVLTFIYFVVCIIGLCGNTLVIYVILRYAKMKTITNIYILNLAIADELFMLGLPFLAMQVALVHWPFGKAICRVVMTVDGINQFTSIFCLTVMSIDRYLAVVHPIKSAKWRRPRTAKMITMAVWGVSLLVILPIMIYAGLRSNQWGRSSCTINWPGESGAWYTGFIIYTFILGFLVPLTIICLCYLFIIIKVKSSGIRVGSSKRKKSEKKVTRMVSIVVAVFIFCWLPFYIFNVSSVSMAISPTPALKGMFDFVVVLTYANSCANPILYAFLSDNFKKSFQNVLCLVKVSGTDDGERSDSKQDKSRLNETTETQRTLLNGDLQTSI

Compound | NanoBRET Fold Response ([1]; SSTR2, tracer 0.1μM) | NanoBRET Fold Response ([1]; SSTR2, tracer 1μM) | NanoBRET Fold Response ([2]; MLNR, tracer 0.1μM) | NanoBRET Fold Response ([2]; MLNR, tracer 1μM) | further results
CN1CCN(C2=Nc3cc(Cl)ccc3Nc3ccc(CNC(=O)CCOCCOCCOCCOCCNC(=O)CCc4ccc5n4[B-](F)(F)[N+]4=C(c6ccc[nH]6)C=CC4=C5)cc32)CC1 [Clozapine-b-2-NB590] | – | – | – | – | NanoBRET Fold Response ([1]; SSTR2, 0.1μM tracer): 1.03; NanoBRET Fold Response ([1]; SSTR2, 1μM tracer): 1.01; NanoBRET Fold Response ([2]; MLNR, 0.1μM tracer): 1.02; NanoBRET Fold Response ([2]; MLNR, 1μM tracer): 1.41
CN(C)CCC=C1c2ccccc2CCc2ccc(C(=O)NCCNC(=O)CCOCCOCCOCCOCCNC(=O)CCc3ccc4n3[B-](F)(F)[N+]3=C(c5ccc[nH]5)C=CC3=C4)cc21 [Amitriptyline-b-2-NB590] | – | – | – | – | NanoBRET Fold Response ([1]; tracer at 1μM): 0.99; NanoBRET Fold Response ([2]; tracer at 0.1μM, listed as amitriptyline-b-2-NB590): 1.19
CCOC(=O)c1cc(C#N)c(N2CCC(C(=O)NS(=O)(=O)Cc3ccccc3/C=C/C(=O)NCCNC(=O)CCc3ccc4n3[B-](F)(F)[N+]3=C(c5ccc[nH]5)C=CC3=C4)CC2)nc1C [AZD1283-1-NB590] | – | – | – | – | NanoBRET Fold Response ([1]; SSTR2, 0.1μM): 1.02; NanoBRET Fold Response ([1]; SSTR2, 1μM): 1.09; NanoBRET Fold Response ([2]; MLNR, 0.1μM): 1.06; NanoBRET Fold Response ([2]; MLNR, 1μM): 1.01
CC(C)N(CC[C@H](c1ccccc1)c1cc(CCNC(=O)CCOCCOCCOCCOCCNC(=O)CCc2ccc3n2[B-](F)(F)[N+]2=C(c4ccc[nH]4)C=CC2=C3)ccc1O)C(C)C [Tolterodine-2-NB590] | 1.04 | 1.00 | 0.87 | 1.15 | –
CC(C)N(CC[C@H](c1ccccc1)c1cc(CCNC(=O)c2ccc(CNC(=O)CCc3ccc4n3[B-](F)(F)[N+]3=C(c5ccc[nH]5)C=CC3=C4)cc2)ccc1O)C(C)C [Tolterodine-BZ-NB590] | 0.95 | 1.00 | 1.06 | 1.05 | –
O=C(CCOCCOCCOCCOCCNC(=O)CCc1ccc2n1[B-](F)(F)[N+]1=C(c3ccc[nH]3)C=CC1=C2)NCCCN1CCN(C2=Nc3ccccc3Oc3ccc(Cl)cc32)CC1 [Loxapine-a-2-NB590] | 1.03 | 1.31 | 1.20 | 1.16 | –
CN1CCN(C2=Nc3cc(Cl)ccc3N(CC(=O)NCCOCCOCCOCCOCCNC(=O)CCc3ccc4n3[B-](F)(F)[N+]3=C(c5ccc[nH]5)C=CC3=C4)c3ccccc32)CC1 [Clozapine-c-2-NB590] | – | – | – | – | NanoBRET Fold Response ([1]; SSTR2, 0.1μM tracer): 0.97; NanoBRET Fold Response ([1]; SSTR2, 1μM tracer): 1.00; NanoBRET Fold Response ([2]; MLNR, 0.1μM tracer): 0.66; NanoBRET Fold Response ([2]; MLNR, 1μM tracer): 1.14
CN(C)CCC=C1c2ccccc2CCc2ccc(C(=O)NCCNC(=O)CCOCCOCCOCCOCCNC(=O)CCc3ccc4n3[B-](F)(F)[N+]3=C(c5ccc[nH]5)C=CC3=C4)cc21 [Amitriptyline-a-2-NB590] | – | – | – | – | NanoBRET Fold Response ([1]; tracer at 0.1μM): 1.03; NanoBRET Fold Response ([1]; tracer at 1μM): 1.03; NanoBRET Fold Response ([2]; tracer at 0.1μM): 1.05; NanoBRET Fold Response ([2]; tracer at 1μM): 1.05
Cc1nc2n(c(=O)c1CCN1CCC(c3noc4cc(F)ccc34)CC1)CCCC2OC(=O)NCCOCCOCCOCCOCCNC(=O)CCc1ccc2n1[B-](F)(F)[N+]1=C(c3ccc[nH]3)C=CC1=C2 (centres unmarked) [Risperidone-2-NB590] | 0.98 | 1.01 | 0.93 | 0.97 | –
COc1ccc2[nH]c(-c3ccc(CNC(=O)CCOCCOCCOCCOCCNC(=O)CCc4ccc5n4[B-](F)(F)[N+]4=C(c6ccc[nH]6)C=CC4=C5)cc3)c(CCNC(C)=O)c2n1 [AzomelatoninICO9-2-NB590] | – | – | – | – | NanoBRET Fold Response ([1]; 0.1μM tracer): 1.10; NanoBRET Fold Response ([1]; 1μM tracer): 1.00; NanoBRET Fold Response ([2]; 0.1μM tracer): 0.60; NanoBRET Fold Response ([2]; 1μM tracer): 0.87
COc1ccccc1N1CCN(CCCCN2C(=O)c3ccc(CNC(=O)CCOCCOCCOCCOCCNC(=O)CCc4ccc5n4[B-](F)(F)[N+]4=C(c6ccc[nH]6)C=CC4=C5)cc3C2=O)CC1 [NAN-190-2-NB590] | 0.99 | 1.03 | 0.67 | – | –
O=C(CCc1ccc2n1[B-](F)(F)[N+]1=C(c3ccc[nH]3)C=CC1=C2)NCCOCCOCCNC(=O)OCCOCCN1CCN(C2=Nc3ccccc3Sc3ccccc32)CC1 [Quetiapine-a-2-NB590] | 1.03 | 0.77 | 1.02 | 0.86 | –
O=C(CCOCCOCCOCCOCCNC(=O)CCc1ccc2n1[B-](F)(F)[N+]1=C(c3ccc[nH]3)C=CC1=C2)NCCCN1CCN(C2=Nc3cc(Cl)ccc3Nc3ccccc32)CC1 [Clozapine-a-2-NB590] | – | – | – | – | NanoBRET Fold Response ([1]; SSTR2, 0.1μM tracer): 1.03; NanoBRET Fold Response ([1]; SSTR2, 1μM tracer): 1.07; NanoBRET Fold Response ([2]; MLNR, 0.1μM tracer): 0.94; NanoBRET Fold Response ([2]; MLNR, 1μM tracer): 1.08
N#CN=C(NCCCOc1cccc(CN2CCCCC2)c1)NCCNC(=O)CCOCCOCCOCCOCCNC(=O)CCc1ccc2n1[B-](F)(F)[N+]1=C(c3ccc[nH]3)C=CC1=C2 [Aminopotentidine-2-NB590] | 0.98 | 1.02 | 0.97 | 1.00 | –
O=C(CCc1ccc2n1[B-](F)(F)[N+]1=C(c3ccc[nH]3)C=CC1=C2)NCc1ccc(C(=O)NCCOCCOCCNCC(O)COc2cccc3ccccc23)cc1 (centres unmarked) [Propranolol-3-NB590] | – | – | – | – | NanoBRET Fold Response ([1]; SSTR2, 0.1μM): 1.04; NanoBRET Fold Response ([1]; SSTR2, 1μM): 1.01; NanoBRET Fold Response ([2]; MLNR, 0.1μM): 1.01; NanoBRET Fold Response ([2]; MLNR, 1μM): 1.02
O=C(CCc1ccc2n1[B-](F)(F)[N+]1=C(c3ccc[nH]3)C=CC1=C2)NCc1ccc(C(=O)NCCOCCC(=O)N[C@@H]2CC[C@@]3(O)[C@H]4Cc5ccc(O)c6c5[C@@]3(CCN4CC3CC3)[C@H]2O6)cc1 [Naltrexone-3-NB590] | 1.06 | 0.93 | 1.44 | 0.69 | –
COc1ccccc1N1CCN(CCCCN2C(=O)c3ccc(CNC(=O)CCOCCNC(=O)c4ccc(CNC(=O)CCc5ccc6n5[B-](F)(F)[N+]5=C(c7ccc[nH]7)C=CC5=C6)cc4)cc3C2=O)CC1 [NAN-190-3-NB590] | 1.00 | 1.10 | 1.32 | 0.66 | –
Cc1cc2c(s1)Nc1ccccc1N=C2N1CCN(CCCNC(=O)CCOCCOCCOCCOCCNC(=O)CCc2ccc3n2[B-](F)(F)[N+]2=C(c4ccc[nH]4)C=CC2=C3)CC1 [Olanzapine-a-2-NB590] | 1.03 | 0.96 | 1.27 | 1.15 | –
CCCn1c(=O)c2[nH]c(-c3ccc(OCC(=O)NCCNC(=O)CCOCCNC(=O)c4ccc(CNC(=O)CCc5ccc6n5[B-](F)(F)[N+]5=C(c7ccc[nH]7)C=CC5=C6)cc4)cc3)nc2n(CCC)c1=O [XAC-3-NB590] | 0.97 | 1.06 | 0.99 | 0.91 | –
COc1ccc2c(n1)c(CCNC(C)=O)cn2CCNC(=O)CCc1ccc2n1[B-](F)(F)[N+]1=C(c3ccc[nH]3)C=CC1=C2 [Azamelatonin-1-NB590] | – | – | – | – | NanoBRET Fold Response ([1]; 0.1μM tracer): 1.07; NanoBRET Fold Response ([1]; 1μM tracer): 0.88; NanoBRET Fold Response ([2]; 0.1μM tracer): 1.00; NanoBRET Fold Response ([2]; 1μM tracer): 0.92
